Here are results for seven molecules from patent US20250221988A1 (Cullgen (Shanghai), Inc., priority 2022, published 2025).

One experiment relates to MOLM-13 cells. Briefly: Cell viability assay (CellTiter-Glo) in MOLM-13 cells. To be noted: MOLM-13 cells; for IC50: three days. Format: cell-based. On the procedure: (§1) Cell Culture: RS4;11, MV4;11, MOLM-13 and other cells were cultured at 37° C. with 5% CO2 in RPMI 1640 or DMEM Medium supplemented with 10% fetal bovine serum. Cells were authenticated using the short tandem repeat (STR) assays. Mycoplasma test results were negative.
Cell viability assays: Cells were seeded at a density of 5000 cells per well in 96-well assay plates and treated with test compounds following a 8-point or 12-point 3-fold serial dilution. Three days later, cell viability was determined using the CellTiter-Glo assay kit according to the manufacturer's instructions. The dose-response curves were determined and IC50 values were calculated using the GraphPad Prism software following a nonlinear regression (least squares fit) method. […]

Another experiment concerns MV4;11 cells. Briefly: Cell viability assay (CellTiter-Glo) in MV4;11 cells. To be noted: MV4;11 cells, three days, read-out: MV4. The experiment is classed as cell-based. On the procedure: as §1
Cell viability assays: Cells were seeded at a density of 5000 cells per well in 96-well assay plates and treated with test compounds following a 8-point or 12-point 3-fold serial dilution. Three days later, cell viability was determined using the CellTiter-Glo assay kit according to the manufacturer's instructions. The dose-response curves were determined and IC50 values were calculated using the GraphPad Prism software following a nonlinear regression (least squares fit) method.
The IC50 values (nM) of each compound were determined in MV4;11 and MOLM-13 cells with or without gilteritinib (10 nM for MV4;11; and 20 nM for MOML-13) as described in the Materials and Methods subsection and calculated using the GraphPad Prism 5.0 software.

[1] abbreviates: Homo sapiens, 72 h, compound alone, read-out: MOLM-13 IC50.
Setting [2] is: with gilteritinib, read-out: MOLM-13 IC50 (nM) + 10 nM Gil.
[3] abbreviates: Homo sapiens, MV4-11, 72 h, compound alone, 11 IC50.
The mark [4] stands for this setting: with 10 nM gilteritinib, 11 IC50 (nM) + 10 nM Gil.

Like-named read-outs stand apart in the source and are kept apart here.

As to `O=C1CCC(N2C(=O)c3ccc(NC[C@H]4C[C@H](n5cc(Nc6cccnc6)c(C6CC6)n5)C4)cc3C2=O)C(=O)N1` (stereo partly drawn) [GS-670, 5-(((Trans-3-(3-cyclopropyl-4-(pyridin-3-ylamino)-1H-pyrazol-1-yl)cyclobutyl)methyl)amino)-2-(2,6-dioxopiperidin-3-yl)isoindoline-1,3-dione], the IC50 lay within 100 to 1000 nM in the experiment on MOLM-13 cells (setting [1]), 10 to 100 nM in the experiment on MOLM-13 cells (setting [2]), 10 to 100 nM in the experiment with MV4;11 cells (setting [3]) and 10 to 100 nM with MV4;11 cells (setting [4]).
As to `O=C1CCC(N2C(=O)c3ccc(NC[C@H]4C[C@H](n5cc(-c6cnc7ccc(C8CC(O)C8)cc7n6)c(C6CC6)n5)C4)cc3C2=O)C(=O)N1` (stereo partly drawn) [GS-764, 5-(((Trans-3-(3-cyclopropyl-4-(7-(3-hydroxycyclobutyl)quinoxalin-2-yl)-1H-pyrazol-1-yl)cyclobutyl)methyl)amino)-2-(2,6-dioxopiperidin-3-yl)isoindoline-1,3-dione], the IC50 in the experiment with MOLM-13 cells (setting [1]), in the experiment on MOLM-13 cells (setting [2]), in the experiment with MV4;11 cells (setting [3]) and in the experiment on MV4;11 cells (setting [4]) was under 10 nM throughout.
On to `O=C1CCC(N2C(=O)c3ccc(NC[C@H]4C[C@H](n5cc(-c6cccc(N7CCCC7)n6)c(C6CC6)n5)C4)cc3C2=O)C(=O)N1` (relative stereo) [GS-748, 5-(((Trans-3-(3-cyclopropyl-4-(6-(pyrrolidin-1-yl)pyridin-2-yl)-1H-pyrazol-1-yl)cyclobutyl)methyl)amino)-2-(2,6-dioxopiperidin-3-yl)isoindoline-1,3-dione], for which the IC50 was 10 to 100 nM in the experiment on MOLM-13 cells (setting [1]), under 10 nM in the experiment on MOLM-13 cells (setting [2]), 10 to 100 nM with MV4;11 cells (setting [3]) and under 10 nM with MV4;11 cells (setting [4]).
As to `CN1CC(c2ccc3nc(-c4cn([C@H]5C[C@H](CNc6ccc7c(c6)C(=O)N(C6CCC(=O)NC6=O)C7=O)C5)nc4C4CC4)cnc3c2)C1` (stereo partly drawn) [GS-755, 5-(((Trans-3-(3-cyclopropyl-4-(6-(1-methylazetidin-3-yl)quinoxalin-2-yl)-1H-pyrazol-1-yl)cyclobutyl)methyl)amino)-2-(2,6-dioxopiperidin-3-yl)isoindoline-1,3-dione], the IC50 in the experiment with MOLM-13 cells (setting [1]) was 10 to 100 nM; with MOLM-13 cells (setting [2]), under 10 nM; in the experiment on MV4;11 cells (setting [3]), 10 to 100 nM; in the experiment with MV4;11 cells (setting [4]), under 10 nM.
Consider `COc1cnc2c(c1)c(C1CC1)nn2[C@H]1C[C@H](CNc2ccc3c(c2)C(=O)N(C2CCC(=O)NC2=O)C3=O)C1` (stereo partly drawn) [GS-682, 5-(((Trans-3-(3-cyclopropyl-5-methoxy-1H-pyrazolo[3,4-b]pyridin-1-yl)cyclobutyl)methyl)amino)-2-(2,6-dioxopiperidin-3-yl)isoindoline-1,3-dione], for which the IC50 in the experiment on MOLM-13 cells (setting [1]) is 100 to 1000 nM; in the experiment on MOLM-13 cells (setting [2]), 10 to 100 nM; with MV4;11 cells (setting [3]), 10 to 100 nM; in the experiment on MV4;11 cells (setting [4]), under 10 nM.
`O=C1CCC(N2C(=O)c3ccc(NC[C@H]4C[C@H](n5cc(-c6cc7nn(C8CC(O)C8)cc7cn6)c(C6CC6)n5)C4)cc3C2=O)C(=O)N1` (stereo partly drawn) [GS-750, 5-(((Trans-3-(3-cyclopropyl-4-(2-(3-hydroxycyclobutyl)-2H-pyrazolo[4,3-c]pyridin-6-yl)-1H-pyrazol-1-yl)cyclobutyl)methyl)amino)-2-(2,6-dioxopiperidin-3-yl)isoindoline-1,3-dione]: the IC50 with MOLM-13 cells (setting [1]), in the experiment on MOLM-13 cells (setting [2]), in the experiment on MV4;11 cells (setting [3]) and in the experiment with MV4;11 cells (setting [4]) was under 10 nM in each case. Further, the “sensitization of AML cells to GSPT1 degraders by FLT3 inhibition” value in the experiment with MOLM-13 cells (with or without 20 nM gilteritinib, 3 days) was “FLT3 inhibition sensitizes AML cells”.
Regarding `Cc1nc(-c2cn([C@H]3C[C@H](CNc4ccc5c(c4)CN([C@@H]4CCC(=O)NC4=O)C5=O)C3)nc2C2CC2)ccc1F` [GS-801, (R)-3-(5-(((trans-3-(3-cyclopropyl-4-(5-fluoro-6-methylpyridin-2-yl)-1H-pyrazol-1-yl)cyclobutyl)methyl)amino)-1-oxoisoindolin-2-yl)piperidine-2,6-dione], the IC50 in the experiment with MOLM-13 cells (setting [1]) lay in the range of 10 to 100 nM.
